# Measured values published in publication PMC3084843 (PLoS ONE, 2011).
# Molecular target: T1, human Kir2.1 (Homo sapiens, UniProt P63252)
# T1 construct: gene KCNJ2; tags kept
# T1 sequence (P63252 1-427): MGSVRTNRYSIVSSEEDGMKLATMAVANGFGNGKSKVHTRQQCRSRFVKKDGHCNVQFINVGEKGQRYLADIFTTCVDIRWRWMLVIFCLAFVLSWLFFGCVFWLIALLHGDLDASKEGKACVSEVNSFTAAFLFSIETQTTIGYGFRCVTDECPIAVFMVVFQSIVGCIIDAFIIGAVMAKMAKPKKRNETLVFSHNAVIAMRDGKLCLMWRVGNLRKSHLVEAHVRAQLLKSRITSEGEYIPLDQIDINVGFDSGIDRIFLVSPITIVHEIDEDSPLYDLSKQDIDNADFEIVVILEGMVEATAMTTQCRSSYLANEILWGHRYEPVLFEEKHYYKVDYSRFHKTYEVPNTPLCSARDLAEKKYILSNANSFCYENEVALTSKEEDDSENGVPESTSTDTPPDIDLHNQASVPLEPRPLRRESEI
# Test: […]+ uptake into proteoliposomes
# Type: biochemical
compound,measurement,value
CC(C)CCC[C@@H](C)[C@H]1CC[C@H]2[C@@H]3CC=C4C[C@@H](O)CC[C@]4(C)[C@H]3CC[C@]12C [cholesterol],% reduction of channel activity,~ 45%
